In ChEMBL document CHEMBL1221278, “Design, synthesis, and cholesterol-lowering efficacy for prodrugs of berberrubine” (Bioorg Med Chem, 2010):
Calls of active or inactive are those of the source. The calls are words filed in the database; no cut-off is given here.

Assays:
[1] = test system: HepG2; assay: Upregulation of LDLR mRNA expression in human HepG2 cells by RT-PCR; assay type: functional, cell-based
[2] = Lipophilicity, log P of the compound; assay type: physicochemical; conditions: octanol/water
[3] = test system: Rattus norvegicus; assay: Hypolipidemic activity in high fat high cholesterol diet fed Sprague-Dawley rat hyperlipidemic model assessed as reduction in LDL cholesterol 100 mg/kg, po qd for 28 days; design: scale not given: the % may be the effect or the level left
[4] = test system: Rattus norvegicus; assay: Hypolipidemic activity in high fat high cholesterol diet fed Sprague-Dawley rat hyperlipidemic model assessed as reduction in total cholesterol 100 mg/kg, po qd for 28 days; design: scale not given: the % may be the effect or the level left
[5] = test system: Rattus norvegicus; assay: Toxicity in high fat high cholesterol diet fed Sprague-Dawley rat hyperlipidemic model assessed as weight loss at 100 mg/kg, po qd for 28 days; conditions: in vivo, 672 h
[6] = test system: Rattus norvegicus; assay: Toxicity in high fat high cholesterol diet fed Sprague-Dawley rat hyperlipidemic model assessed as reduction in food intake at 100 mg/kg, po qd for 28 days; conditions: in vivo, 672 h
[7] = test system: Rattus norvegicus; assay: Toxicity in high fat high cholesterol diet fed Sprague-Dawley rat hyperlipidemic model assessed as liver of kidney function abnormalities at 100 mg/kg, po qd for 28 days; conditions: in vivo, 672 h

logP [2]	Compound	Activity [1]	also measured
0.1	CCCCC(=O)Oc1c(OC)ccc2cc3[n+](cc12)CCc1cc2c(cc1-3)OCO2	inactive	–
3.8	CCCCCCCCCCCC(=O)Oc1c(OC)ccc2cc3[n+](cc12)CCc1cc2c(cc1-3)OCO2	inactive	–
1.69	CCCCCCCC(=O)Oc1c(OC)ccc2cc3[n+](cc12)CCc1cc2c(cc1-3)OCO2	inactive	–
-0.43	CCCC(=O)Oc1c(OC)ccc2cc3[n+](cc12)CCc1cc2c(cc1-3)OCO2	inactive	–
1.16	CCCCCCC(=O)Oc1c(OC)ccc2cc3[n+](cc12)CCc1cc2c(cc1-3)OCO2	inactive	–
5.91	CCCCCCCCCCCCCCCC(=O)Oc1c(OC)ccc2cc3[n+](cc12)CCc1cc2c(cc1-3)OCO2.[Cl-]	inactive	Activity [3]: 45.5%; Activity [5]: Non-toxic; Activity [6]: Non-toxic; Activity [4]: 35.8%; Activity [7]: Non-toxic
6.98	CCCCCCCCCCCCCCCCCC(=O)Oc1c(OC)ccc2cc3[n+](cc12)CCc1cc2c(cc1-3)OCO2	inactive	–
2.74	CCCCCCCCCC(=O)Oc1c(OC)ccc2cc3[n+](cc12)CCc1cc2c(cc1-3)OCO2	inactive	–

Further lines, the compound ahead of its results:

Compound	logP [2]	Activity [1]	also measured
COc1ccc2cc3[n+](cc2c1OC(=O)c1ccccc1)CCc1cc2c(cc1-3)OCO2	0.58	inactive	–
COc1ccc2cc3[n+](cc2c1OC(=O)C(C)(C)C)CCc1cc2c(cc1-3)OCO2	-0.25	inactive	–
COc1ccc2cc3[n+](cc2c1OCOC(=O)c1ccccc1)CCc1cc2c(cc1-3)OCO2	0.97	inactive	–
COc1ccc2cc3[n+](cc2c1OC(=O)/C=C/c1ccccc1)CCc1cc2c(cc1-3)OCO2	1.03	inactive	–
COc1ccc2cc3[n+](cc2c1OCOC(=O)C(C)(C)C)CCc1cc2c(cc1-3)OCO2	-0.06	inactive	–
COc1ccc2cc3[n+](cc2c1OC)CCc1cc2c(cc1-3)OCO2.[Cl-] [BERBERINE CHLORIDE]	-0.92	–	Activity [3]: 38%; Activity [4]: 27.4%
COc1ccc2cc3[n+](cc2c1O)CCc1cc2c(cc1-3)OCO2 [BERBERRUBINE CHLORIDE]	-1.06	–	–
CCOC(=O)Oc1c(OC)ccc2cc3[n+](cc12)CCc1cc2c(cc1-3)OCO2	-1.18	inactive	–
